“And” between values parts separate entries of the source, which are not always exact repeats. Identical values can stand only once. Toxic doses and inconclusive results are not listed.
System: P388 leukemia ip, CD2F1 mice, survival T/C
Experiment: NCI In Vivo Anticancer Drug Screen. Data for tumor model P388 Leukemia (intraperitoneal) in CD2F1 (CDF1) mice
Conditions: endpoint: median survival time, higher = longer survival
Procedure, shortened: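 Mice carrying the transplanted tumor received test compound or vehicle. Survival was recorded in each group, and the value is the treated-group measurement divided by that of the vehicle-treated control group.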

[1] = dose: 50.0 mg/kg/injection, schedule: Q01DX005 (ip), vehicle: saline with Tween-80
[2] = dose: 100.0 mg/kg/injection, schedule: Q01DX005 (ip), vehicle: saline with Tween-80
[3] = dose: 200.0 mg/kg/injection, schedule: Q01DX005 (ip), vehicle: saline with Tween-80
[4] = dose: 50.0 mg/kg/injection, schedule: Q01DX009 (ip), vehicle: saline with Tween-80
[5] = dose: 100.0 mg/kg/injection, schedule: Q01DX009 (ip), vehicle: saline with Tween-80
[6] = dose: 200.0 mg/kg/injection, schedule: Q01DX009 (ip), vehicle: saline with Tween-80
[7] = dose: 50.0 mg/kg/injection, schedule: Q04DX003 (ip), vehicle: saline
[8] = dose: 100.0 mg/kg/injection, schedule: Q04DX003 (ip), vehicle: saline
[9] = dose: 200.0 mg/kg/injection, schedule: Q04DX003 (ip), vehicle: saline
[10] = dose: 50.0 mg/kg/injection, schedule: Q01DX009 (ip), vehicle: Klucel (hydroxypropylcellulose) (HPC)
[11] = dose: 100.0 mg/kg/injection, schedule: Q01DX009 (ip), vehicle: Klucel (hydroxypropylcellulose) (HPC)
[12] = dose: 200.0 mg/kg/injection, schedule: Q01DX009 (ip), vehicle: Klucel (hydroxypropylcellulose) (HPC)
[13] = dose: 60.0 mg/kg/injection, schedule: Q01DX005 (ip), vehicle: saline with Tween-80
[14] = dose: 120.0 mg/kg/injection, schedule: Q01DX005 (ip), vehicle: saline with Tween-80
[15] = dose: 240.0 mg/kg/injection, schedule: Q01DX005 (ip), vehicle: saline with Tween-80
[16] = dose: 60.0 mg/kg/injection, schedule: Q01DX005 (ip), vehicle: Klucel (hydroxypropylcellulose) (HPC)
[17] = dose: 120.0 mg/kg/injection, schedule: Q01DX005 (ip), vehicle: Klucel (hydroxypropylcellulose) (HPC)
[18] = dose: 240.0 mg/kg/injection, schedule: Q01DX005 (ip), vehicle: Klucel (hydroxypropylcellulose) (HPC)

CN1CCC2(CC1)C(C#N)C(=O)NC(=O)C2C#N (stereo not drawn)
T/C [1]: 105 % of control
T/C [2]: 100 % of control
T/C [3]: 100 % of control

O=C(NC(=O)C(F)(F)F)Nc1ccc(F)c(Cl)c1
T/C [4]: 96 % of control
T/C [5]: 105 % of control
T/C [6]: 104 % of control

COC(=O)NC1C(C)OC(OC2C/C=C(/C)C3C=CC4C(OC5CC(OC6CC(OC7CC(O)C(O)C(C)O7)C(OC7CC(O)C(OC)C(C)O7)C(C)O6)C(O)C(C)O5)C(C)CC(C)C4C3(C)/C(O)=C3\C(=O)OC4(CC(C)C(CO)=CC4/C=C\2C)C3=O)CC1(C)[N+](=O)[O-] (stereo not drawn)
T/C (dose: 7.5 mg/kg/injection, schedule: Q01DX009 (ip), vehicle: saline): 106 % of control
T/C (dose: 15.0 mg/kg/injection, schedule: Q01DX009 (ip), vehicle: saline): 115 % of control and 122 % of control
T/C (dose: 30.0 mg/kg/injection, schedule: Q01DX009 (ip), vehicle: saline): 121 % of control

C=C1C(O)CC2C(O)C3(C)CCC(C)(C)C3C12O (stereo not drawn)
T/C (dose: 18.75 mg/kg/injection, schedule: Q01DX009 (ip), vehicle: other): 106 % of control
T/C (dose: 37.5 mg/kg/injection, schedule: Q01DX009 (ip), vehicle: other): 98 % of control
T/C (dose: 75.0 mg/kg/injection, schedule: Q01DX009 (ip), vehicle: other): 100 % of control
T/C (dose: 150.0 mg/kg/injection, schedule: Q01DX009 (ip), vehicle: other): 93 % of control

COc1cccc2c1C(=O)c1c(O)c3c(c(O)c1C2=O)C[C@@](O)(C(C)=O)C[C@@H]3OC1CC(NC(=O)C(N)CC(C)C)C(O)C(C)O1 (stereo partly drawn)
T/C (dose: 3.12 mg/kg/injection, schedule: Q04DX003 (ip), vehicle: saline): 109 % of control
T/C (dose: 6.25 mg/kg/injection, schedule: Q04DX003 (ip), vehicle: saline): 119 % of control
T/C (dose: 25.0 mg/kg/injection, schedule: Q04DX003 (ip), vehicle: saline): 163 % of control and 186 % of control
T/C [7]: 163 % of control

O=C(Nc1ccc(S(=O)(=O)Nc2nccs2)cc1)c1ccncc1
T/C [1]: 102 % of control
T/C [2]: 102 % of control
T/C [3]: 102 % of control

COc1cc([C@@H]2c3cc4c(cc3[C@H](O)[C@H]3COC[C@@H]23)OCO4)cc(OC)c1OC
T/C [1]: 103 % of control
T/C [2]: 108 % of control
T/C [3]: 103 % of control

CCOC(=O)C(NC(C)=O)(C(=O)OCC)c1ccc(N)cn1
T/C [8]: 99 % of control
T/C [9]: 103 % of control
T/C (dose: 400.0 mg/kg/injection, schedule: Q04DX003 (ip), vehicle: saline): 98 % of control

O=C1NC(=O)N(c2ccc(Cl)c(Cl)c2)C1=O
T/C [10]: 94 % of control
T/C [11]: 93 % of control
T/C [12]: 94 % of control

CCCOc1ccc(-c2nc(-c3ccc(N=Cc4ccc(N(CCOS(C)(=O)=O)CCOS(C)(=O)=O)cc4C)cc3)cs2)cc1
T/C (dose: 3.12 mg/kg/injection, schedule: Q01DX009 (ip), vehicle: saline with Tween-80): 160 % of control
T/C (dose: 6.25 mg/kg/injection, schedule: Q01DX009 (ip), vehicle: saline with Tween-80): 180 % of control
T/C (dose: 12.5 mg/kg/injection, schedule: Q01DX009 (ip), vehicle: saline with Tween-80): 156 % of control and 166 % of control and 197 % of control
T/C (dose: 25.0 mg/kg/injection, schedule: Q01DX009 (ip), vehicle: saline with Tween-80): 164 % of control
T/C [4]: 110 % of control and 118 % of control

COc1ccc(NC(=O)CCCC(=O)CC(=O)c2ccc(Cl)cc2)c(OC)c1
T/C [13]: 109 % of control
T/C [14]: 103 % of control
T/C [15]: 101 % of control

C=CCCCCC1CC2CCCCN2O1 (stereo not drawn)
T/C [10]: 94 % of control
T/C [11]: 103 % of control
T/C [12]: 113 % of control

O=C(CN1CCOCC1)Nc1cccc(C(F)(F)F)c1
T/C [5]: 110 % of control
T/C [6]: 100 % of control
T/C (dose: 400.0 mg/kg/injection, schedule: Q01DX009 (ip), vehicle: saline with Tween-80): 110 % of control

O/N=C\c1ccccc1P(c1ccccc1/C=N\O)c1ccccc1/C=N\O
T/C (dose: 100.0 mg/kg/injection, schedule: Q01DX001 (ip), vehicle: saline with Tween-80): 87 % of control
T/C (dose: 200.0 mg/kg/injection, schedule: Q01DX001 (ip), vehicle: saline with Tween-80): 89 % of control

COC(=O)C1(CC(=O)c2ccncc2)NC(=S)NC(=O)C1C#N (stereo not drawn)
T/C (dose: 60.0 mg/kg/injection, schedule: Q01DX005 (ip), vehicle: saline): 99 % of control
T/C (dose: 120.0 mg/kg/injection, schedule: Q01DX005 (ip), vehicle: saline): 101 % of control
T/C (dose: 240.0 mg/kg/injection, schedule: Q01DX005 (ip), vehicle: saline): 94 % of control

CC(C)(C)c1cc2c3c(c1)Oc1cc(C(C)(C)C)cc4c1C3(O)c1c(cc(C(C)(C)C)cc1O4)O2
T/C (dose: 1.56 mg/kg/injection, schedule: Q01DX005 (ip), vehicle: Klucel (hydroxypropylcellulose) (HPC)): 107 % of control
T/C (dose: 3.12 mg/kg/injection, schedule: Q01DX005 (ip), vehicle: Klucel (hydroxypropylcellulose) (HPC)): 104 % of control and 108 % of control
T/C (dose: 6.25 mg/kg/injection, schedule: Q01DX005 (ip), vehicle: Klucel (hydroxypropylcellulose) (HPC)): 101 % of control and 110 % of control and 118 % of control
T/C (dose: 12.5 mg/kg/injection, schedule: Q01DX005 (ip), vehicle: Klucel (hydroxypropylcellulose) (HPC)): 107 % of control and 111 % of control and 120 % of control
T/C (dose: 25.0 mg/kg/injection, schedule: Q01DX005 (ip), vehicle: Klucel (hydroxypropylcellulose) (HPC)): 102 % of control

O=CNc1cc(NC=O)ncn1
T/C (dose: 15.0 mg/kg/injection, schedule: Q01DX009 (ip), vehicle: saline with Tween-80): 99 % of control
T/C (dose: 30.0 mg/kg/injection, schedule: Q01DX009 (ip), vehicle: saline with Tween-80): 97 % of control
T/C (dose: 60.0 mg/kg/injection, schedule: Q01DX009 (ip), vehicle: saline with Tween-80): 103 % of control

COc1cc(O)cc2c1C(=O)C(C)O2 (stereo not drawn)
T/C [16]: 101 % of control
T/C [17]: 101 % of control
T/C [18]: 91 % of control

O=C(Nc1ccc(Cl)cc1Cl)c1ccc2c(c1)C(=O)OC2=O
T/C [13]: 98 % of control
T/C [14]: 89 % of control
T/C [15]: 86 % of control

COc1cc([N+](=O)[O-])ccc1NC(=O)Nc1nccs1
T/C [4]: 93 % of control
T/C [5]: 101 % of control
T/C [6]: 99 % of control

COc1cc(NC(C)=O)c2ncccc2c1NC(C)=O
T/C (dose: 50.0 mg/kg/injection, schedule: Q01DX005 (ip), vehicle: Klucel (hydroxypropylcellulose) (HPC)): 99 % of control
T/C (dose: 100.0 mg/kg/injection, schedule: Q01DX005 (ip), vehicle: Klucel (hydroxypropylcellulose) (HPC)): 96 % of control
T/C (dose: 200.0 mg/kg/injection, schedule: Q01DX005 (ip), vehicle: Klucel (hydroxypropylcellulose) (HPC)): 87 % of control

C[C@@]12N[C@H]3S[C@]1(C)c1ccccc1N2C[C@@H]3C#N
T/C (dose: 25.0 mg/kg/injection, schedule: Q01DX005 (ip), vehicle: saline with Tween-80): 99 % of control
T/C [1]: 86 % of control and 94 % of control
T/C [2]: 96 % of control

CSC(=N)c1cccc(OCCOc2ccccc2)c1
T/C (dose: 15.0 mg/kg/injection, schedule: Q01DX005 (ip), vehicle: Klucel (hydroxypropylcellulose) (HPC)): 96 % of control
T/C (dose: 30.0 mg/kg/injection, schedule: Q01DX005 (ip), vehicle: Klucel (hydroxypropylcellulose) (HPC)): 98 % of control
T/C [16]: 91 % of control
T/C [13]: 93 % of control
T/C [17]: 86 % of control
T/C [14]: 101 % of control
T/C [18]: 91 % of control
T/C [15]: 99 % of control

COC(=O)N1N=C(c2ccccc2)C(C(=O)OC)(C(=O)OC)c2ccccc21
T/C [13]: 93 % of control
T/C [14]: 87 % of control

Cc1c(C)[n+](=O)c2ccc(/C=[N+](\C)[O-])cc2n1[O-]
T/C [10]: 98 % of control
T/C [11]: 100 % of control
T/C [12]: 101 % of control

C=CCc1ccccc1OC
T/C [7]: 100 % of control
T/C [8]: 95 % of control
T/C [9]: 100 % of control

CC(C)=Nn1c(=O)oc2cc(Cl)ccc2c1=O
T/C [16]: 95 % of control
T/C [17]: 100 % of control
T/C [18]: 93 % of control

O=C(CSc1nc(-c2ccccc2)c(-c2ccccc2)o1)N1CCOCC1
T/C (dose: 12.5 mg/kg/injection, schedule: Q01DX009 (ip), vehicle: Klucel (hydroxypropylcellulose) (HPC)): 105 % of control
T/C (dose: 25.0 mg/kg/injection, schedule: Q01DX009 (ip), vehicle: Klucel (hydroxypropylcellulose) (HPC)): 105 % of control
T/C [10]: 106 % of control and 110 % of control
T/C [11]: 107 % of control and 120 % of control
T/C [12]: 110 % of control

CC(=O)c1ccc(O)c(CN(CCC#N)CCC#N)c1O
T/C [4]: 96 % of control
T/C [5]: 89 % of control
T/C [6]: 90 % of control
